From patent publication US11564955B2, “Composition including, as active ingredient, strain having ability to produce formic acid for preventing or treating obesity or metabolic syndromes caused by obesity” (KOREA FOOD RESEARCH INSTITUTE, priority 2016, dated 2023)

Tested on: high-fat diet-induced obesity animal models
Conditions: oral formate vs high-fat diet control group
Excerpt: In order to investigate whether formic acid actually has an anti-obesity effect, the present inventors orally administered formate into high-fat diet-induced obesity animal models. […] The patent application procedure of the above-described contents is under way, separately from the present disclosure.

## O=CO [formate]
  blood cholesterol content: significantly reduced
  blood triglyceride content: significantly reduced
  body weight increase: inhibited
  fat cell size: decreased
  kidney fat weight value: lowered
